Patent US9765378B2, “Preparation method of new recombinant antibacterial polypeptide medicine” (priority 2011, dated 2017)

Tested on: Staphylococcus (Staphylococcus aureus, Staphylococcus epidermidis, Staphylococcus saprophyticus, and Staphylococcus sciuri)
Experiment: in vitro inhibition and bactericidal effect on bovine mastitis isolated pathogenic bacteria: Staphylococcus
Type: cell-based
Details: control antibiotics
Procedure: (5) the recombinant antibacterial polypeptide medicine was tested for the in vitro inhibition and bactericidal effect on bovine mastitis isolated pathogenic bacteria.

Row | Structure (SMILES) | inhibition and bactericidal effect of controls (MIC50/MBC50 not specified)
1 | Cc1onc(-c2ccccc2)c1C(=O)N[C@@H]1C(=O)N2[C@@H]1SC(C)(C)[C@@H]2C(=O)O [oxacillin] | 4 µg/mL
2 | CC(=O)OCC1=C(C(=O)O)N2C(=O)[C@@H](NC(=O)Cc3cccs3)[C@H]2SC1 [cephalothin] | 2 µg/mL
